ChEMBL document CHEMBL1141256, “Panaxadiol glycosides that induce neuronal differentiation in neurosphere stem cells” (2007)
Activity calls are given as the source filed them. The rule behind the calls is not given here.

Legend:
[1] = Neurogenesis in GFAP+ mouse neural stem cells at 8 uM after 24 hrs relative to control
[2] = Neurogenesis in TOPRO+ mouse neural stem cells at 8 uM after 24 hrs relative to control
[3] = Neurogenesis in TUJ+MAP2+ mouse neural stem cells at 8 uM for 24 hrs relative to control
[4] = tested on: Neural stem cell; test: Decrease in number of neurons in TUJ/MAP2+ mouse neural stem cells at 15 uM
[5] = tested on: Neural stem cell; test: Neurogenesis of TUJ/MAP2+ mouse neural stem cells at 8 uM afte 12, 24, 48 hrs
[6] = tested on: Neural stem cell; test: Decrease in number of neurons in TUJ/MAP2+ mouse neural stem cells at 8 uM after 72 hrs
[7] = tested on: Neural stem cell; test: Inhibition of calcium induced neurogenesis in mouse neural stem cells in presence of 10 uM nifedipine
[8] = tested on: Neural stem cell; test: Neuronal differentiation in TUJ/MAP2+ EGF responsive mouse neural stem cells at 1 to 8 uM after 72 hrs
[9] = tested on: Neural stem cell; test: Increase in calcium concentration in mouse neural stem cells at 5 uM assessed as […] ratio F350/F380; settings: TDE = time-dependent effect
[10] = Neurogenesis of TUJ/MAP2+ mouse neural stem cells at 8 uM assessed as calcium influx relative to control
[11] = Neurogenesis of TUJ/MAP2+ mouse neural stem cells at 8 uM in presence of 5 uM nifedipine assessed as calcium influx relative to control
[12] = Neurogenesis in GFAP+ mouse neural stem cells at 1 uM relative to control
[13] = Neurogenesis in TOPRO+ mouse neural stem cells at 1 uM relative to control
[14] = Neurogenesis in TUJ+MAP2+ mouse neural stem cells at 1 uM relative to control

CC(C)=CCC[C@](C)(O)[C@H]1CC[C@]2(C)[C@@H]1[C@H](O)C[C@@H]1[C@@]3(C)CC[C@H](O[C@@H]4O[C@H](CO)[C@@H](O)[C@H](O)[C@H]4O[C@@H]4O[C@H](CO)[C@@H](O)[C@H](O)[C@H]4O)C(C)(C)[C@@H]3CC[C@]12C
Activity [1]: 35.9% | Activity [2]: 140% | Activity [3]: 16.1%

CC(C)=CC/C=C(\C)[C@H]1CC[C@]2(C)[C@@H]1[C@H](O)C[C@@H]1[C@@]3(C)CC[C@H](O[C@@H]4O[C@H](CO)[C@@H](O)[C@H](O)[C@H]4O[C@@H]4O[C@H](CO)[C@@H](O)[C@H](O)[C@H]4O)C(C)(C)[C@@H]3CC[C@]12C [GINSENOSIDE RG5]
Activity [4]: Active | Activity [5]: Active | Activity [1]: 25.2% | Activity [2]: 132% | Activity [6]: Active | Activity [3]: 30.5% | Activity [7]: Active | Activity [8]: Active | Activity [9]: tde | Activity [10]: 29.6% | Activity [11]: 4%

C=C(CCC=C(C)C)[C@H]1CC[C@]2(C)[C@@H]1[C@H](O)C[C@@H]1[C@@]3(C)CC[C@H](O[C@@H]4O[C@H](CO)[C@@H](O)[C@H](O)[C@H]4O[C@@H]4O[C@H](CO)[C@@H](O)[C@H](O)[C@H]4O)C(C)(C)[C@@H]3CC[C@]12C [GISENOSIDE RK1]
Activity [1]: 28.8% | Activity [2]: 107% | Activity [3]: 28.4%

CC1=C(/C=C/C(C)=C/C=C/C(C)=C/C(=O)O)C(C)(C)CCC1 [TRETINOIN]
Activity [12]: 36.3% | Activity [13]: 148% | Activity [14]: 16.5%
